4 molecules from ChEMBL document CHEMBL3085731, “Novel water-soluble prodrugs of acyclovir cleavable by the dipeptidyl-peptidase IV (DPP IV/CD26) enzyme” (Eur J Med Chem, 2013) can be followed below.

SMILES strings stand for the structures. Converted amounts (≈) assume the structure as drawn. Residues, ends and D or L forms follow the SMILES beside them. *: point of attachment. X1 = O=c1[nH]c(N*)nc2c1ncn2COCCO

One series deals with Human alphaherpesvirus 2. The series can be described thus: Antiviral activity against Herpes simplex virus 2 G infected in HEL cells assessed as inhibition of virus-induced cytopathicity. The settings on record: Human alphaherpesvirus 2, strain G. Type of series: functional, organism-based.
Series [1] has as its system Human alphaherpesvirus 1. The series can be described thus: Antiviral activity against Herpes simplex virus 1 KOS infected in HEL cells assessed as inhibition of virus-induced cytopathicity. Type of series: functional, organism-based. The settings on record: Human alphaherpesvirus 1, KOS. A general note: Protection from cytopathic effect is a common read-out in antiviral testing.

Series [2] has as its system Human alphaherpesvirus 1. Kind of series: Antiviral activity against thymidine kinase-deficient ACV-resistant Herpes simplex virus 1 KOS infected in HEL cells assessed as inhibition of virus-induced cytopathicity. Type of series: functional, organism-based. The settings on record: Human alphaherpesvirus 1, KOS.
The nature of series [3]: Chemical stability of the compound in sodium phosphate buffer at pH 3.2 after 6 hrs. Type of series: physicochemical. To be noted: pH 3.2, 6 h.
Series [4] has as its target T1, Dipeptidyl peptidase 4 (Homo sapiens, UniProt P27487). The series can be described thus: Prodrug conversion assessed as human dipeptidyl peptidase 4-mediated Val-ACV formation at 50 uM after 24 hrs by HPLC analysis. In kind it is ADME. To be noted: isolated protein.
Series [5] can be described thus: Prodrug conversion in PBS buffer assessed as ACV formation at 50 uM after 24 hrs by HPLC analysis. Type of series: ADME.
Series [6] can be described thus: Solubility of the compound in deionized water at pH 5.5 after overnight incubation by HPLC analysis. In kind it is physicochemical.
In series [7] the target is T1, Dipeptidyl peptidase 4. Kind of series: Prodrug conversion assessed as dipeptidyl peptidase 4-mediated ACV formation in human serum at 50 uM after 1 hr by HPLC analysis. In kind it is ADME.
Series [8] has as its target T1, Dipeptidyl peptidase 4. Kind of series: Prodrug conversion assessed as dipeptidyl peptidase 4-mediated ACV formation in human serum at 50 uM after 24 hrs by HPLC analysis. In kind it is ADME.
Series [9] in a line: Oral bioavailability in human. Type of series: ADME, organism-based. The settings on record: in vivo.
Series [10] concerns the target Dipeptidyl peptidase 4 (Bos taurus, UniProt P81425). Kind of series: Prodrug conversion assessed as dipeptidyl peptidase 4-mediated ACV formation in bovine serum at 50 uM after 2 hrs by HPLC analysis. To be noted: cattle. In kind it is ADME.
Series [11] addresses T1, Dipeptidyl peptidase 4. Kind of series: Prodrug conversion assessed as dipeptidyl peptidase 4-mediated ACV formation in human serum at 50 uM after 2 hrs by HPLC analysis. In kind it is ADME.
A short description of series [12]: Prodrug conversion in PBS buffer assessed as ACV formation at 50 uM after 2 hrs by HPLC analysis. Type of series: ADME.

T1 sequence (P27487 whole entry): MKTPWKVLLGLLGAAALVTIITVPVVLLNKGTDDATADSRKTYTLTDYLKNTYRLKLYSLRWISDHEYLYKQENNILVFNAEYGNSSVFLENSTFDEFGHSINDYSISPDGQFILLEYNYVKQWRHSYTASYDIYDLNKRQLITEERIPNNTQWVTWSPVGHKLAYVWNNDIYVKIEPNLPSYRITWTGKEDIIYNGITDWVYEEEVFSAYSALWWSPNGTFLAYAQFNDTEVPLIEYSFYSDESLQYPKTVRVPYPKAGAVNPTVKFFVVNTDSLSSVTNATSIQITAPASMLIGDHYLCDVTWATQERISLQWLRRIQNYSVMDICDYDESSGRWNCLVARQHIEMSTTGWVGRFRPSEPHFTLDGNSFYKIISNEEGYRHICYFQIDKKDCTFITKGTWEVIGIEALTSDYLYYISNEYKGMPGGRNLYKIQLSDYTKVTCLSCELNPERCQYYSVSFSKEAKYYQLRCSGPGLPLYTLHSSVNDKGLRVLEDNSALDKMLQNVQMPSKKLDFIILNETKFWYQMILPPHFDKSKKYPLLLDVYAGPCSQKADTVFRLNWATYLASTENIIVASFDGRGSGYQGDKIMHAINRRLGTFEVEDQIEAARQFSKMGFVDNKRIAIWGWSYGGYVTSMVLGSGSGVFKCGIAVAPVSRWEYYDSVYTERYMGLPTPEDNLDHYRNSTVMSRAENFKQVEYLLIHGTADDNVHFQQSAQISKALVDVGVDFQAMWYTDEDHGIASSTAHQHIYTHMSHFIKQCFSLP
Sequence of Dipeptidyl peptidase 4 (Bos taurus, UniProt P81425) (P81425 whole entry): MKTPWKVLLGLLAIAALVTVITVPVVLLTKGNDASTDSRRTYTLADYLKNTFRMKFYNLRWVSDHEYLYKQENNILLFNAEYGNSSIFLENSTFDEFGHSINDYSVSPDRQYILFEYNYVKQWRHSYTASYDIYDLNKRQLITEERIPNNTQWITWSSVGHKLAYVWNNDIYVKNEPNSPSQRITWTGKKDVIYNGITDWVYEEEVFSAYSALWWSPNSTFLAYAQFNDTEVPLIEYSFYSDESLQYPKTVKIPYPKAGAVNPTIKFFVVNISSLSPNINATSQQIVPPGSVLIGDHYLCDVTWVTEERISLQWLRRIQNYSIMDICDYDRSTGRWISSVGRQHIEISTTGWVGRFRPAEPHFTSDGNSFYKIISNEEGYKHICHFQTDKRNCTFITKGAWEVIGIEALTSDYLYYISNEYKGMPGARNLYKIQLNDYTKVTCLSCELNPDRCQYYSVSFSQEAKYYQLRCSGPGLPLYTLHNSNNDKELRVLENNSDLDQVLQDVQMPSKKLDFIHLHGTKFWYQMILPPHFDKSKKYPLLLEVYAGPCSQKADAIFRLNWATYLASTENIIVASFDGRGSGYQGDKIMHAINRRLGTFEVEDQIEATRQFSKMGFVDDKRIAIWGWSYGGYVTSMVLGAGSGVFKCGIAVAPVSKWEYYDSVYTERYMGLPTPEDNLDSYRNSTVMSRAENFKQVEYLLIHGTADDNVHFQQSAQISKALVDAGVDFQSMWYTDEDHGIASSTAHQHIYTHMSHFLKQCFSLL

Consider `CC(C)[C@H](N)C(=O)N1CCC[C@H]1C(=O)N[C@H](C(=O)OCCOCn1cnc2c(=O)[nH]c(N)nc21)C(C)C`, for which the figures for the EC50 with Human alphaherpesvirus 2, in the series on Human alphaherpesvirus 1 [1] and with Human alphaherpesvirus 1 [2] were 1.6 µM, 0.6 µM and 32 µM, respectively. Moreover, the Stability entry in series [3] was “Stable”. For the same molecule, the Drug metabolism result at Dipeptidyl peptidase 4 [4] is given as “Active”; in series [5], “Not Active”. Moreover, the solubility (usually the concentration that dissolves in the medium under given conditions) in series [6] was 12.2 mg/mL (≈ 23.4 mM).
In the case of `CC(C)[C@H](N)C(=O)N1CCC[C@H]1C(=O)N[C@H](C(=O)N1CCC[C@H]1C(=O)Nc1nc2c(ncn2COCCO)c(=O)[nH]1)C(C)C` (H-VPVP-X1), the values for the concentration giving a half-maximal response (EC50) in the series with Human alphaherpesvirus 2, in the series on Human alphaherpesvirus 1 [1] and with Human alphaherpesvirus 1 [2] were 4.9 µM, 1.8 µM and 73 µM, respectively. The Stability entry in series [3] is “Stable”. For the same molecule, the Drug metabolism entry (at Dipeptidyl peptidase 4 [7]; on Dipeptidyl peptidase 4 [8]; in [5]) was “Active” throughout. This molecule also yielded a solubility in series [6] of 22.9 mg/mL (≈ 37 mM).
On to `Nc1nc2c(ncn2COCCO)c(=O)[nH]1` [ACYCLOVIR], for which the bioavailability (as a rule, the share of a dose that reaches the circulation, judged against a reference dose that is usually intravenous) in [9] stood at 10%. Besides, the EC50 (commonly the midpoint of the concentration-response curve) worked out at 0.5 µM in the series on Human alphaherpesvirus 2 and 18 µM with Human alphaherpesvirus 1 [2]. In addition, the solubility in series [6] stood at 1.29 mg/mL (≈ 5.73 mM).
For the molecule `CC(C)[C@H](N)C(=O)OCCOCn1cnc2c(=O)[nH]c(N)nc21` [VALACYCLOVIR], the Drug metabolism result (at Dipeptidyl peptidase 4 [10]; at Dipeptidyl peptidase 4 [11]; in series [12]) was “Active” each time.
